Experimental data taken from ChEMBL document CHEMBL3885881, “DrugMatrix”.

Species: Rattus norvegicus
Experiment: DrugMatrix - Regimen: Daily Repeat
Format: toxicity, organism-based, Sprague-Dawley
Design: regimen Daily Repeat, gender Male, age 6-8 weeks
Conditions: in vivo, po, route oral GAVAGE, vehicle 100 % WATER; for ABSOLUTE BASOPHIL / ABSOLUTE EOSINOPHIL / ABSOLUTE LYMPHOCYTE / ABSOLUTE MONOCYTE / ABSOLUTE SEGMENTED NEUTROPHIL / BASOPHIL / EOSINOPHIL / ERYTHROCYTE COUNT / HEMATOCRIT / HEMOGLOBIN / LEUKOCYTE COUNT / LYMPHOCYTE / MEAN CORPUSCULAR HEMOGLOBIN / MEAN CORPUSCULAR HEMOGLOBIN CONCENTRATION / MEAN CORPUSCULAR VOLUME / MONOCYTE / NEUTROPHIL / NUCLEATED RED BLOOD CELLS / PLATELET COUNT: tissue Blood; for ALANINE AMINOTRANSFERASE / ALBUMIN / ALKALINE PHOSPHATASE / ASPARTATE AMINOTRANSFERASE / BLOOD UREA NITROGEN / CARBON DIOXIDE / CHLORIDE / CHOLESTEROL / CREATINE PHOSPHOKINASE / CREATININE / GLUCOSE / LACTATE DEHYDROGENASE / LIPASE / PHOSPHORUS / POTASSIUM / SODIUM / TOTAL BILIRUBIN / TOTAL PROTEIN / URIC ACID: tissue Plasma
[1] = 0 mg/kg, 72 h, dose level Control, time 3 day
[2] = 0 mg/kg, 120 h, dose level Control, time 5 day
[3] = 56 mg/kg, 72 h, dose level Low, time 3 day

## CC[C@H]1OC(=O)[C@H](C)[C@@H](O[C@H]2C[C@@](C)(OC)[C@@H](O)[C@H](C)O2)[C@H](C)[C@@H](O[C@@H]2O[C@H](C)C[C@H](N(C)C)[C@H]2O)[C@](C)(OC)C[C@@H](C)C(=O)[C@H](C)[C@@H](O)[C@]1(C)O [CLARITHROMYCIN]
[1]
  ABSOLUTE BASOPHIL: 0 CELLS/uL
  ABSOLUTE EOSINOPHIL: 91.5 CELLS/uL
  ABSOLUTE LYMPHOCYTE: 14108.83 CELLS/uL
  ABSOLUTE MONOCYTE: 81 CELLS/uL
  ABSOLUTE SEGMENTED NEUTROPHIL: 818.67 CELLS/uL
  BASOPHIL: 0%
  EOSINOPHIL: 0.67%
  ERYTHROCYTE COUNT: 5.56 x10E6/uL
  HEMATOCRIT: 34.5%
  HEMOGLOBIN: 13.45 G/DL
  LEUKOCYTE COUNT: 15.1 x10E3/uL
  LYMPHOCYTE: 93%
  MEAN CORPUSCULAR HEMOGLOBIN: 24.2 pg
  MEAN CORPUSCULAR HEMOGLOBIN CONCENTRATION: 38.98 G/DL
  MEAN CORPUSCULAR VOLUME: 62.07 fL
  MONOCYTE: 0.5%
  NEUTROPHIL: 5.83%
  NUCLEATED RED BLOOD CELLS: 0 /100WBC
  PLATELET COUNT: 1193.33 x10E3/uL
  ALANINE AMINOTRANSFERASE: 60.33 u/L
  ALBUMIN: 4 G/DL
  ALKALINE PHOSPHATASE: 334.83 u/L
  ASPARTATE AMINOTRANSFERASE: 74.5 u/L
  BLOOD UREA NITROGEN: 13.5 mg/dL
  CARBON DIOXIDE: 30.33 mmol/L
  CHLORIDE: 98.33 MEQ/L
  CHOLESTEROL: 71.17 mg/dL
  CREATINE PHOSPHOKINASE: 212 u/L
  CREATININE: 0.21 mg/dL
  GLUCOSE: 173.17 mg/dL
  LACTATE DEHYDROGENASE: 101.5 u/L
  LIPASE: 24.17 u/L
  PHOSPHORUS: 10.87 mg/dL
  POTASSIUM: 6.06 MEQ/L
  SODIUM: 140.58 MEQ/L
  TOTAL BILIRUBIN: 0.17 mg/dL
  TOTAL PROTEIN: 5.9 G/DL
  URIC ACID: 1.23 mg/dL
[2]
  ABSOLUTE BASOPHIL: 0 CELLS/uL
  ABSOLUTE EOSINOPHIL: 34.5 CELLS/uL
  ABSOLUTE LYMPHOCYTE: 8181 CELLS/uL
  ABSOLUTE MONOCYTE: 82.67 CELLS/uL
  ABSOLUTE SEGMENTED NEUTROPHIL: 435.17 CELLS/uL
  BASOPHIL: 0%
  EOSINOPHIL: 0.5%
  ERYTHROCYTE COUNT: 5.31 x10E6/uL
  HEMATOCRIT: 33.83%
  HEMOGLOBIN: 13.37 G/DL
  LEUKOCYTE COUNT: 8.73 x10E3/uL
  LYMPHOCYTE: 93.5%
  MEAN CORPUSCULAR HEMOGLOBIN: 25.2 pg
  MEAN CORPUSCULAR HEMOGLOBIN CONCENTRATION: 39.53 G/DL
  MEAN CORPUSCULAR VOLUME: 63.73 fL
  MONOCYTE: 1%
  NEUTROPHIL: 5%
  NUCLEATED RED BLOOD CELLS: 0 /100WBC
  PLATELET COUNT: 1057.33 x10E3/uL
  ALANINE AMINOTRANSFERASE: 54.33 u/L
  ALBUMIN: 4.07 G/DL
  ALKALINE PHOSPHATASE: 308.67 u/L
  ASPARTATE AMINOTRANSFERASE: 83.17 u/L
  BLOOD UREA NITROGEN: 14 mg/dL
  CARBON DIOXIDE: 34 mmol/L
  CHLORIDE: 98 MEQ/L
  CHOLESTEROL: 71.33 mg/dL
  CREATINE PHOSPHOKINASE: 266.5 u/L
  CREATININE: 0.27 mg/dL
  GLUCOSE: 133 mg/dL
  LACTATE DEHYDROGENASE: 127 u/L
  LIPASE: 11.67 u/L
  PHOSPHORUS: 10.6 mg/dL
  POTASSIUM: 6.17 MEQ/L
  SODIUM: 142.68 MEQ/L
  TOTAL BILIRUBIN: 0.15 mg/dL
  TOTAL PROTEIN: 6.03 G/DL
  URIC ACID: 0.75 mg/dL
[3]
  ABSOLUTE BASOPHIL: 0 CELLS/uL
  ABSOLUTE EOSINOPHIL: 59.33 CELLS/uL
  ABSOLUTE LYMPHOCYTE: 13806.33 CELLS/uL
  ABSOLUTE MONOCYTE: 0 CELLS/uL
  ABSOLUTE SEGMENTED NEUTROPHIL: 1301 CELLS/uL
  BASOPHIL: 0%
  EOSINOPHIL: 0.33%
  ERYTHROCYTE COUNT: 5.56 x10E6/uL
  HEMATOCRIT: 35.47%
  HEMOGLOBIN: 13.53 G/DL
  LEUKOCYTE COUNT: 15.17 x10E3/uL
  LYMPHOCYTE: 91.67%
  MEAN CORPUSCULAR HEMOGLOBIN: 24.37 pg
  MEAN CORPUSCULAR HEMOGLOBIN CONCENTRATION: 38.2 G/DL
  MEAN CORPUSCULAR VOLUME: 63.77 fL
  MONOCYTE: 0%
  NEUTROPHIL: 8%
  NUCLEATED RED BLOOD CELLS: 0 /100WBC
  PLATELET COUNT: 1156.33 x10E3/uL
  ALANINE AMINOTRANSFERASE: 46.33 u/L
  ALBUMIN: 4.03 G/DL
  ALKALINE PHOSPHATASE: 259.67 u/L
  ASPARTATE AMINOTRANSFERASE: 70.67 u/L
  BLOOD UREA NITROGEN: 12.33 mg/dL
  CARBON DIOXIDE: 30.33 mmol/L
  CHLORIDE: 99.67 MEQ/L
  CHOLESTEROL: 68.33 mg/dL
  CREATINE PHOSPHOKINASE: 185.33 u/L
  CREATININE: 0.19 mg/dL
  GLUCOSE: 143.67 mg/dL
  LACTATE DEHYDROGENASE: 137.33 u/L
  LIPASE: 10.67 u/L
  PHOSPHORUS: 10.87 mg/dL
  POTASSIUM: 6.51 MEQ/L
  SODIUM: 141.97 MEQ/L
  TOTAL BILIRUBIN: 0.2 mg/dL
  TOTAL PROTEIN: 5.93 G/DL
  URIC ACID: 1.4 mg/dL
